Earlier results, collected in US7550449B2, “Carba cyclic phosphatidic acid derivative” (priority 2002, dated 2009).

How the values were obtained:
MM1 cells = details: within several minutes of addition, effect not lost with LPA, literature
[1] = tested on: MM1 cells, highly invasive clones of a rat ascites hepatoma cell line (AH-130); details: literature (Mukai et al. 1999)
[2] = tested on: human fibrosarcoma cells (HT-1080); details: cells require neither serum nor LPA for invasion; literature
Rho = details: literature (Mukai et al. 2000)

CCCCCCCCCCCCCCCC(=O)OCC1COP(=O)(O)O1 (stereo not shown) [Pal-cPA]
intracellular cAMP concentration (MM1 cells): elevated
invasion suppressing activity among cPA derivatives with different fatty acids at sn-1 [1]: strongest invasion suppressing activity
suppression of invasion of HT-1080 cells [2]: significantly suppressed
LPA-mediated Rho activation (Rho): inhibited
